{
  "source": "paper PMC8275550",
  "about": "“Developmental Neurotoxicity of Fipronil and Rotenone on a Human Neuronal In Vitro Test System” (Neurotoxicity Research, 2021)",
  "key": {"[1]": {"assay": "Resazurin reduction viability assay in the neuronal differentiation assay", "assay_type": "cell-based, human", "conditions": "human", "method": "(§1) As established in our previous study (Stern et al. [2014]), cells were seeded into 96-well plates (Corning Costar, Kaiserslautern, Germany) at 80,000 cells per well and incubated in DMEM/F12 with 10 µM retinoic acid (RA) for 4 days (one media change). Cells were incubated for further 5 days (one media change) in media containing 10 µM RA and up to seven concentrations of a test compound. On day 9 (5-day exposition), cell viability was measured using a resazurin reduction assay (Trinova Biochem, Giessen, Germany). Subsequently, cells were fixed for 15 min in PFA and immunolabeled for ß-tubulin type III as above (Fig. 1a). For control purposes, photographs were taken at × 20 magnification as above. Neuronal differentiation was determined by measuring red fluorescence (excitation 568 nm, emission 603 nm) in a multiwell-plate reader (Infinite 200, TECAN, Germany). As a confirmation of the viability data, cell number was also quantified by measuring DAPI fluorescence (excitation 350 nm, emission 488 nm)."}, "[2]": {"tested_on": "differentiating NT2 cells", "assay": "Resazurin reduction viability assay in the neuronal differentiation assay", "assay_type": "cell-based, human", "conditions": "differentiation assay, 5 days exposure; read-out: IC50 general cytotoxicity (resazurin), unspec. EP", "method": "as §1"}, "[3]": {"assay": "Resazurin reduction viability assay in the cell migration assay", "assay_type": "cell-based", "conditions": "human; migration assay, 44 h exposure; > = highest tested concentration; read-out: IC50 general cytotoxicity (resazurin), unspec. EP", "method": "(§2) As established before (Stern et al. [2014]), NT2 precursor cells were seeded in 96-mm bacteriological grade Petri dishes (Greiner, Hamburg, Germany) at a density of 4 × 10^6–5 × 10^6 cells per dish. Within 24 h, cells formed free-floating spherical aggregates of 300–800 µm diameter. On the first day, 10 ml of culture medium was added to each Petri dish. On the next days, medium with 10 μM retinoic acid (RA) was added and changed every 2–3 days by transferring the cell suspension to centrifuge tubes and centrifuge at 200 × g for 7 min. After 9 days in culture, aggregates were gently resuspended using a Pasteur pipette, and seeded at 60,000 cells per well into black 96-well plates with flat transparent bottom (Nunc). Plates were lined with poly-D-lysine and laminin (10 µg/ml each), equipped with silicone stoppers from the Oris Cell Migration Assay (AMS Biotechnology, Abingdon, UK). Cells were allowed to adhere overnight. On the next day, stoppers were pulled leaving a monolayer of cells with a circular hole of 2-mm diameter. […] After one wash in PBS, cells were fixed for 15 min in PFA, washed twice in PBS-T and stained with DAPI (0.5 µg/ml) for 5 min, followed by two washes in PBS. A black 96-hole plastic mask leaving a central circular area of 2-mm diameter for each well was clipped to the bottom of the plate. This allows viewing only those cells that had migrated into the free areas left by the silicone stoppers during seeding (Fig. 1b). Migration was quantified by taking two photographs of each well and measuring the distance of the migration front from the black margin of the mask in using ImageJ. Occasional asymmetries caused by slight inaccuracies of silicone stopper placement were compensated by averaging measurements in four quadrants per well. […] Average null-migration values were subtracted from migrated distance before evaluation."}, "in vitro": {"assay": "in vitro", "conditions": "human", "quoted_text": "Dispersed cells were seeded into two identical poly-D-lysine (10 µg/ml) coated 96-well plates (Corning Costar, Kaiserslautern, Germany) at a density of 10,000 cells per well. Cultures were exposed to up to seven different concentrations of a test compound in DMEM/F12 (six technical replicates per concentration) for 24 h. One plate was immediately fixed in 4% paraformaldehyde in PBS (PFA) for 15 min. After 24 h, while a resazurin reduction assay (2 h) was performed on the other plate. […] Fixed cells were washed in PBS containing 0.1% Triton X100 (PBS-T) and immunolabeled for ß-tubulin type III (monoclonal anti ßtubIII, 1:20,000) using a red fluorescent secondary antibody (goat anti mouse-alexaFluor568, Invitrogen, Germany, 1:250) and DAPI (0.1 µg/ml) as nuclear counterstain. Cells were examined on a Zeiss Axiovert 200 inverted microscope equipped with a CoolSnap camera (Photometrics, Tucson, AZ, USA) and MetaMorph software (Molecular Devices, Sunnyvale, CA, USA), or a Zeiss Axiocam50 mono and Zeiss ZENlite 2.6 blue edition software. Two photographs/well at × 20 magnification were taken. Lengths of all neurites in the field of view were measured in ImageJ (http://imagej.nih.gov/ij) using the ‚segmented line ‘ tool (Fig. 1c) and divided by the number of ß-tubulin III-positive cells."}, "[4]": {"tested_on": "differentiating NT2 cells", "assay": "cells", "assay_type": "cell-based, human", "method": "as §1"}, "SH-SY5Ycells": {"tested_on": "SH-SY5Ycells", "design": "method as in Ruangjaroon et al. [2017]", "conditions": "incompletely differentiated cells; ref Ruangjaroon et al. [2017]; cited from earlier work"}, "NT2 neurons": {"tested_on": "NT2 neurons", "assay": "cells", "assay_type": "cell-based, human", "conditions": "Homo sapiens; 24 h exposure; total neurite length/neuron; normalized to solvent control; read-out: IC50 neurite outgrowth (spec. EP)", "source_text": "Two photographs/well at × 20 magnification were taken."}, "zebrafish embryo": {"tested_on": "zebrafish embryo", "conditions": "cited from earlier work"}, "insect GABAa receptors": {"tested_on": "insect GABAa receptors", "design": "method as in Hainzl et al. [1996]", "conditions": "ref Hainzl et al. [1996]; cited from earlier work"}, "N2a neuroblastoma cells": {"tested_on": "N2a neuroblastoma cells", "design": "method as in Sidiropoulou et al. ([2011])", "conditions": "ref Sidiropoulou et al. ([2011]); cited from earlier work"}, "NT2 precursor cells": {"tested_on": "NT2 precursor cells", "assay": "cells", "assay_type": "cell-based, human", "method": "as §2"}, "[5]": {"conditions": "yes = at least one concentration of rescuing compound with specific endpoint significantly less affected"}},
  "data": [
    {"compound": "N#Cc1nn(-c2c(Cl)cc(C(F)(F)F)cc2Cl)c(N)c1[S+]([O-])C(F)(F)F", "note": "(centres unmarked) [Fipronil, 5-Amino-1-[2,6-dichloro-4-(trifluoromethyl)phenyl]-4-(trifluoromethylsulfinyl)pyrazole-3-carbonitrile]", "values": [
      {"measurement": "viability", "setting": "[1]; 15.6 µM fipronil, read-out: General viability (% of control)", "value": "> 90", "unit": "%"},
      {"measurement": "IC50", "setting": "[1]; differentiation assay, 5 days exposure, read-out: IC50 general cytotoxicity (resazurin), unspec. EP", "value": 23.2, "unit": "µM"},
      {"measurement": "IC50", "setting": "[2]", "value": 23.4, "unit": "µM"},
      {"measurement": "IC50", "setting": "[3]", "value": "> 62.5", "unit": "µM"},
      {"measurement": "IC50", "setting": "in vitro", "value": "> 62.5", "unit": "µM"},
      {"measurement": "IC50", "setting": "[4]; Homo sapiens, NT2, 120 h, 5 days exposure, read-out: IC50 neuronal differentiation (ß-tub III, spec. EP)", "value": 14.8, "unit": "µM"},
      {"measurement": "activity at 15.6 µM", "setting": "[4]; Homo sapiens, NT2, 15.6 µM fipronil, read-out: ß-tubulin III-immunofluorescence (% of control)", "value": "< 50", "unit": "%"},
      {"measurement": "Rescue by NAC, neuronal differentiation", "setting": "[4]; [5]", "value": "yes"},
      {"measurement": "Concentration reducing process outgrowth of vimentin-positive protrusions, but not viability", "setting": "SH-SY5Ycells", "value": 25, "unit": "µM"},
      {"measurement": "IC50", "setting": "NT2 neurons", "value": "> 62.5", "unit": "µM"},
      {"measurement": "Concentration inhibiting zebrafish neurogenesis", "setting": "zebrafish embryo; via reduction of gene expression for neuron/glia differentiation, ref Park et al. [2020]", "value": "~ 33 µM"},
      {"measurement": "Concentration disturbing development of motor circuits", "setting": "zebrafish embryo; zebrafish embryo, ref Stehr et al. [2006]", "value": 0.7, "unit": "µM"},
      {"measurement": "Higher affinity to insect GABAa receptors than to vertebrate GABA receptors", "setting": "insect GABAa receptors", "value": "more than 100 fold"},
      {"measurement": "Concentration reducing outgrowth of axon-like processes", "setting": "N2a neuroblastoma cells", "value": 1, "unit": "µM"},
      {"measurement": "Concentrations with significant differences between viability and migration", "setting": "NT2 precursor cells; 44 h exposure", "value": "≥ 15.63", "unit": "µM"},
      {"measurement": "IC50", "setting": "NT2 precursor cells; Homo sapiens, 44 h exposure, read-out: IC50 migration (spec. EP)", "value": 25.1, "unit": "µM"},
      {"measurement": "Rescue by NAC, migration", "setting": "NT2 precursor cells; [5]", "value": "yes"}
    ]}
  ]
}
